Results taken from the NIST ThermoML archive (doi:10.1016/j.fluid.2016.09.021).
Numbers after ± are expanded uncertainties.

Conditions: Liquid, Vibrating tube method

Cc1ccccc1 [toluene]
mass density [kg/m3]
Conditions	393 K	413 K	433 K	448 K	468 K
2000 kPa	774.2 ± 2.1	753.1 ± 2.2	731.6 ± 2.2	714.3 ± 2.3	689.9 ± 2.3
3000 kPa	775.7 ± 2.1	754.9 ± 2.1	733.6 ± 2.2	716.6 ± 2.2	692.7 ± 2.3
4000 kPa	777.2 ± 2.1	756.5 ± 2.1	735.6 ± 2.2	718.9 ± 2.2	695.5 ± 2.3
5000 kPa	778.5 ± 2	758.3 ± 2.1	737.5 ± 2.1	721.1 ± 2.2	698.2 ± 2.3
10000 kPa	785.1 ± 2.1	766.1 ± 2.1	746.9 ± 2.1	731.4 ± 2.1	710.6 ± 2.2
20000 kPa	797 ± 2.1	779.5 ± 2.1	762.1 ± 2.1	748.5 ± 2.1	730.4 ± 2.1
30000 kPa	807.5 ± 2.1	791.3 ± 2.1	774.9 ± 2.1	762.6 ± 2.1	745.9 ± 2.1
40000 kPa	816.9 ± 2.1	801.6 ± 2.1	786.5 ± 2.1	774.7 ± 2.1	759.3 ± 2.1
50000 kPa	825.2 ± 2.1	810.8 ± 2.1	796.7 ± 2.1	785.5 ± 2.1	771.1 ± 2.1
60000 kPa	833.3 ± 2.1	819.2 ± 2.1	805.8 ± 2.1	795.1 ± 2.1	781.7 ± 2.1
70000 kPa	840.6 ± 2.1	827.3 ± 2.1	814.3 ± 2.1	804.1 ± 2.1	790.9 ± 2.1
80000 kPa	847.3 ± 2.1	834.6 ± 2.1	822 ± 2.1	812.3 ± 2.1	799.8 ± 2.1
90000 kPa	854 ± 2.1	841.3 ± 2.1	829.2 ± 2.1	820 ± 2.1	808 ± 2.2
100000 kPa	860.1 ± 2.1	848 ± 2.1	836 ± 2.1	827.2 ± 2.1	815.5 ± 2.2
110000 kPa	866 ± 2.1	854.2 ± 2.1	842.6 ± 2.1	833.9 ± 2.2	822.8 ± 2.2
120000 kPa	871.6 ± 2.1	860.2 ± 2.1	848.7 ± 2.1	840.2 ± 2.2	829.5 ± 2.2
130000 kPa	877.2 ± 2.1	865.8 ± 2.1	854.9 ± 2.2	846.6 ± 2.2	836 ± 2.2
135000 kPa	879.8 ± 2.1	868.5 ± 2.1	857.7 ± 2.2	849.6 ± 2.2	838.9 ± 2.2
137500 kPa	881 ± 2.1	869.7 ± 2.1	859 ± 2.2	850.9 ± 2.2	840.4 ± 2.2
